Reference: patent US10513521B2, “Compositions and methods for inhibiting BMP” (The Brigham and Women's Hospital, Inc., priority 2014, dated 2019)
Substitutions are numbered along the chain they refer to. Several values for one entry are separate records, joined by “and”; a condition that tells them apart may be missing. Identical values can stand only once.

Tests used:
[1] = biological target: T1, ALK2 (Mus musculus, UniProt P37172); assay: HTRF pSMAD1 cell-based ALK2 assay (C2C12 cells, BMP6 as agonist); details: cell-based assay, BMP6; read-out: Cell IC50 BMP6
T1 construct: The C2C12 cell line was selected for the measurement of ALK2 activity using BMP6 as the agonist; host or cells: C2C12
T1 sequence (P37172 21-509): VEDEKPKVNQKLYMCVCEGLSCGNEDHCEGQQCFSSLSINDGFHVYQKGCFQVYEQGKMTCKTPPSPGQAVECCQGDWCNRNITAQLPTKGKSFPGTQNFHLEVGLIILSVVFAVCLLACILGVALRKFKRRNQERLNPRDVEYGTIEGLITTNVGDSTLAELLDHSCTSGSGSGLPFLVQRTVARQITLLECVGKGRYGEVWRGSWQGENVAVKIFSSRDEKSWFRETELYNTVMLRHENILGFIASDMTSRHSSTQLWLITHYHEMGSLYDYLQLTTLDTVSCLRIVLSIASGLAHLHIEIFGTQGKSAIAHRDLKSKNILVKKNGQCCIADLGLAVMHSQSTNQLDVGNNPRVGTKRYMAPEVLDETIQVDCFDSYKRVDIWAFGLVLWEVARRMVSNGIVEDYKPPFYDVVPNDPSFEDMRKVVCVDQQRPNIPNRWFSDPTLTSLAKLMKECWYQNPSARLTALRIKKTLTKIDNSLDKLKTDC
Outline: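 Cells pre-starved, plated in 0.1% FBS medium for 4 h, compound added for 30 min, then stimulated 30 min with BMP9 (BAOEC) or BMP6 (C2C12). Phospho-SMAD1 measured by HTRF after overnight room-temperature detection incubation.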

[2] = Cell-based assay, TGFb1 (Cell IC50)
[3] = biological target: ALK1 (Homo sapiens, UniProt P37023); assay: TR-FRET enzymatic ALK kinase assay, ALK1
Protocol: (§1) Briefly, the ALKs enzymatic assay was initiated by dispense 2.5 μl enzyme in 1× kinase reaction buffer. The assay plate was then added with compounds followed by incubation at room temperature for 10 minutes. Then 2.5 μl/well substrate was added.

[4] = biological target: T2, ALK2 (Homo sapiens, UniProt Q04771); assay: TR-FRET enzymatic ALK kinase assay, ALK2
T2 sequence (Q04771 21-509): T1 sequence (P37172 21-509) with V1M, Q10P, I121L, E162D, S310P
Protocol: as §1

[5] = biological target: ALK3 (Homo sapiens, UniProt P36894); assay: TR-FRET enzymatic ALK kinase assay, ALK3
Protocol: as §1

[6] = biological target: T3, ALK4 (Homo sapiens, UniProt P36896); assay: TR-FRET enzymatic ALK kinase assay, ALK4
T3 sequence (P36896 24-505): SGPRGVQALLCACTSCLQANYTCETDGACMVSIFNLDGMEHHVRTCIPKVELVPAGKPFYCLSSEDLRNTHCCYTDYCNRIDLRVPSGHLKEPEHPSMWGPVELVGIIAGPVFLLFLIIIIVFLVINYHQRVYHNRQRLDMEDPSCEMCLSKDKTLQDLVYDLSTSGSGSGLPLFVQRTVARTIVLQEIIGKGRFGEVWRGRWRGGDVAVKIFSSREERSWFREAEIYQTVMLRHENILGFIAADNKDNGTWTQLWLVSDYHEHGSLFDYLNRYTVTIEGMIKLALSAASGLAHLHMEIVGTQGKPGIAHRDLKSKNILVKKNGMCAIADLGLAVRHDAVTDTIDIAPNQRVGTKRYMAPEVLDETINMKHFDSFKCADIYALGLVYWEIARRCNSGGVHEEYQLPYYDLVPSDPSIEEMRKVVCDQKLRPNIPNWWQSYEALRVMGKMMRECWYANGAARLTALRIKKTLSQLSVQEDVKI
Protocol: as §1

[7] = biological target: T4, ALK5 (Homo sapiens, UniProt P36897); assay: TR-FRET enzymatic ALK kinase assay, ALK5
T4 sequence (P36897 34-503): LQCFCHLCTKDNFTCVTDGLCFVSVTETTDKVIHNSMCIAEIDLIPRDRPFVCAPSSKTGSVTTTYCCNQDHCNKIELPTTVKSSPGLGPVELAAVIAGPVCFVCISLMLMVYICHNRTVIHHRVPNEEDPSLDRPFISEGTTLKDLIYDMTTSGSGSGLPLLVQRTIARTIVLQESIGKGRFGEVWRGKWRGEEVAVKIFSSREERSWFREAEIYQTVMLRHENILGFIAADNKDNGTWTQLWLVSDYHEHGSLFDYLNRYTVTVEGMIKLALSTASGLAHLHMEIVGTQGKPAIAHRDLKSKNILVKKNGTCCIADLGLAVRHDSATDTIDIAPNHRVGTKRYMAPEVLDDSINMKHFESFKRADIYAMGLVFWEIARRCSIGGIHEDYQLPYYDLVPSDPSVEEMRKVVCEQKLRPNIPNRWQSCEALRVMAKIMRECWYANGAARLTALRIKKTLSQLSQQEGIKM
Protocol: Six ALK kinase enzyme assays were developed for determination of compound activities on ALK1, ALK2, ALK3, ALK4, ALK5 and ALK6.
as §1

[8] = biological target: ALK6 (Homo sapiens, UniProt O00238); assay: TR-FRET enzymatic ALK kinase assay, ALK6
Protocol: as §1

[9] = biological target: T1, ALK2; assay: In-cell Western ALK2 assay (C2C12 cells, BMP6 as agonist); assay type: cell-based; details: read-out: BMP6 ICW
Source text: 3. In-Cell Western ALK1 and ALK2 Assays in 384-Well Plate Format.
We also optimized cell-based In-cell Western assays for measurements of ALK1 and ALK2 activities that were used to determine compound activities in these two kinases. The cell lines and agonists used were same as described in above cell-based HTRF ALK1 and ALK2 assays. The initial cell plating and compound treatment were also same. The main difference is the detection of phosphorylation status of SMAD1. In t-cell Western assay, the cells were fixed and phosphorylation status of SMAD1 was detected by the ELISA instead of using the HTRF assay kit in above assay.
HyClone Fetal Bovine Serum was obtained from GE healthcare life sciences (Logan, Utah). BMP6 and BMP9 were purchased from R&D System (R&D). Anti-P-SMAD 1/5/8 rabbit mAb and anti-rabbit IgG, HRP-Linked antibody were purchased from Cell Signaling Technology (Danvers, Mass.). BioFX Chemiluminescent Ultra-Sensitive HRP Microwell Substrate ECL Reagent was obtained from SurModics (Edina, Minn.). The compound plates and the white solid MB assay plates were from Greiner Bio-one (Monroe, N.C.).
Similarly as described in above HTRF cell-based assay, this assay was performed in 384 well plate format. […] Pre-starved cells were then plated in 384 well plate in the starvation medium (containing in 0.1% FBS). After 4 hours, compound dilutions in DMSO were added to the assay plate and incubated for 30 minutes. The assay plate was then added with BMP6 for C2C12 cells or BMP9 for BAOEC cells and incubated for 30 minutes.
The cells were washed in the plate washer with PBS and blocked with 2% BSA in PBS for 1 h at room temperature on the rotator. After removing the blocking reagent, the cells were incubated with the anti-p-SMAD1 antibody in 2% BSA in PBS for overnight at 4° C. on rotator. The cells were washed with PBS in the plate washer and incubated with HRP conjugated second antibody in 2% BSA in PBS for 1 hour at room temperature. After a cell wash with PBS, ECL detection reagent was added and the plate was read in the luminesce mode in the ViewLux plate reader.

ALK6, sequence (O00238 14-502): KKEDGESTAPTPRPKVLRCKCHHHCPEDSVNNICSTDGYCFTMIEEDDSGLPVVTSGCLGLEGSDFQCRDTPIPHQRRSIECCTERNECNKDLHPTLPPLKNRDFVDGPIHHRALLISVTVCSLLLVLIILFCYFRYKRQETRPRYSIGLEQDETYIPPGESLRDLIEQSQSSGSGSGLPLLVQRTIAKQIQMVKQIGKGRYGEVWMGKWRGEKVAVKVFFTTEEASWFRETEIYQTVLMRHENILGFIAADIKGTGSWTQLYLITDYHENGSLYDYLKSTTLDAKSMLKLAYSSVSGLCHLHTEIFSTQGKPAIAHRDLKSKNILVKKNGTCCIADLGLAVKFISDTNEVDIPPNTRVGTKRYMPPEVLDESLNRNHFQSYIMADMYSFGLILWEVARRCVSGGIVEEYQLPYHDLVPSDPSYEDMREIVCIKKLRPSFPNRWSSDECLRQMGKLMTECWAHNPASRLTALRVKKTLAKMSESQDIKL
ALK3, sequence (P36894 24-532): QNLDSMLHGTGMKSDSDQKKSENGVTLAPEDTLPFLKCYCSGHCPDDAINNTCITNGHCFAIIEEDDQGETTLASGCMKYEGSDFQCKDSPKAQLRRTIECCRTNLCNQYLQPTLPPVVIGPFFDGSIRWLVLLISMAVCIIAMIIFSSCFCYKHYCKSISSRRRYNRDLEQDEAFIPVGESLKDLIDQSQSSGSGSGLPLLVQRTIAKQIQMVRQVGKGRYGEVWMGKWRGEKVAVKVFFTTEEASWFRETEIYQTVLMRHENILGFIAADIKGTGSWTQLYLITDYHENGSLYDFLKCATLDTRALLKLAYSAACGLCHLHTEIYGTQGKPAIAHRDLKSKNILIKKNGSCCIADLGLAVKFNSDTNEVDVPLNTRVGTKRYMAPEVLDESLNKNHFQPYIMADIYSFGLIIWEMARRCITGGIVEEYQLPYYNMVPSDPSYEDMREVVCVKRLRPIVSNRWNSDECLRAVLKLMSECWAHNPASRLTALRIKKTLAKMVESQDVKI
ALK1, sequence (P37023 22-503): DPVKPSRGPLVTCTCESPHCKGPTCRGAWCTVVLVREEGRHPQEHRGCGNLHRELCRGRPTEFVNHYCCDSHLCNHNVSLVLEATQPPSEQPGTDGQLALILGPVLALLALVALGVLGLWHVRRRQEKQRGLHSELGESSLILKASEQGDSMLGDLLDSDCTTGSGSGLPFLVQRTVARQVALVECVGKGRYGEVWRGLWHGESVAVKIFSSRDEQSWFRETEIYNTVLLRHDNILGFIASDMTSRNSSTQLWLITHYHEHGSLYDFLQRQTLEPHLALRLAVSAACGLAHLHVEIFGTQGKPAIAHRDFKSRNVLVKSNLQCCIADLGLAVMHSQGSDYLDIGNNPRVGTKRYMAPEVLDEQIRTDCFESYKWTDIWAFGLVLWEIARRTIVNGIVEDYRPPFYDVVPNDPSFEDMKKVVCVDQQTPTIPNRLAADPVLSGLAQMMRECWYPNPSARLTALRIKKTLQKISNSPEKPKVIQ

Structure (SMILES) | IC50 [1] [nM] | IC50 [2] [µM] | IC50 [3] [nM] | IC50 [4] [nM] | IC50 [5] [µM] | IC50 [6] [µM] | IC50 [7] [µM] | IC50 [8] [µM] | IC50 [9]
NS(=O)(=O)c1cccc(-c2cnn3cc(-c4ccc(C5CCNCC5)cc4)cnc23)c1 [Compound 95, 3-(6-(4-(piperidin-4-yl)phenyl)pyrazolo[1,5-a]pyrimidin-3-yl)benzenesulfonamide] | 1500 | 0.064 | 520 | 79 | 9.7 | > 10 | > 10 | > 10 | –
CC(C)(CN1CCCCC1)Oc1ccc(-c2cnc3c(-c4cccc(S(N)(=O)=O)c4)cnn3c2)cc1 [Compound 96, 3-(6-(4-((2-methyl-1-(piperidin-1-yl)propan-2-yl)oxy)phenyl)pyrazolo[1,5-a]pyrimidin-3-yl)benzenesulfonamide] | 152 | 0.919 | 240 | 66 | 4.9 | 6 | > 10 | > 10 | –
CC(O)c1cccc(-c2cnn3cc(-c4ccc(CCN5CCCCC5)cc4)cnc23)c1 (stereo not drawn) [Compound 97, 1-(3-(6-(4-(2-(piperidin-1-yl)ethyl)phenyl)pyrazolo[1,5-a]pyrimidin-3-yl)phenyl)ethanol] | 1160 | 0.0012 | 510 | 99 | 3 | > 10 | > 10 | > 10 | –
CC(O)c1cccc(-c2cnn3cc(-c4ccc(C5CCNCC5)cc4)cnc23)c1 (stereo not drawn) [Compound 98, 1-(3-(6-(4-(piperidin-4-yl)phenyl)pyrazolo[1,5-a]pyrimidin-3-yl)phenyl)ethanol] | 668 | 7 | 310 | 72 | 3.3 | > 10 | > 10 | > 10 | –
CC(C)(O)c1cccc(-c2cnn3cc(-c4ccc(CCN5CCCCC5)cc4)cnc23)c1 [Compound 99, 2-(3-(6-(4-(2-(piperidin-1-yl)ethyl)phenyl)pyrazolo[1,5-a]pyrimidin-3-yl)phenyl)propan-2-ol] | 509 | 46 | 250 | 43 | 2.2 | > 10 | > 10 | > 10 | –
CS(=O)(=O)c1cccc(-c2cnn3cc(-c4ccc(C5CCNC5)cc4)cnc23)c1 (stereo not drawn) [Compound 129, 3-(3-(methylsulfonyl)phenyl)-6-(4-(pyrrolidin-3-yl)phenyl)pyrazolo[1,5-a]pyrimidine] | – | – | 490 | 63 | > 10 | > 10 | > 10 | > 10 | 580 nM and 152 nM

Stronger by IC50 [3], values ahead:

IC50 [1] [nM] | IC50 [2] [µM] | IC50 [3] [nM] | IC50 [4] [nM] | IC50 [5] [µM] | IC50 [6] [µM] | IC50 [7] [µM] | IC50 [8] [µM] | IC50 [9] | Structure (SMILES)
179 | 59.2 | 220 | 52 | 3.2 | > 10 | > 10 | > 10 | – | CN1CCC(c2ccc(-c3cnc4c(-c5cccc(S(C)(=O)=O)c5)cnn4c3)cc2)CC1 [Compound 91, 6-(4-(1-methylpiperidin-4-yl)phenyl)-3-(3-(methylsulfonyl)phenyl)pyrazolo[1,5-a]pyrimidine]
266 | 17 | 91 | 26 | 1.6 | > 10 | > 10 | > 10 | – | CN1CCC(c2ccc(-c3cnc4c(-c5cccc(C(C)(C)O)c5)cnn4c3)cc2)CC1 [Compound 92, 2-(3-(6-(4-(1-methylpiperidin-4-yl)phenyl)pyrazolo[1,5-a]pyrimidin-3-yl)phenyl)propan-2-ol]
430 | 4.4 | 220 | 53 | 6.1 | > 10 | > 10 | > 10 | – | CS(=O)(=O)c1cccc(-c2cnn3cc(-c4ccc(C5CCNCC5)cc4)cnc23)c1 [Compound 94, 3-(3-(methylsulfonyl)phenyl)-6-(4-(piperidin-4-yl)phenyl)pyrazolo[1,5-a]pyrimidine]
477 | > 100 | 120 | 39 | 3.3 | > 10 | > 10 | > 10 | – | CC(C)(O)c1cccc(-c2cnn3cc(-c4ccc(C5CCNCC5)cc4)cnc23)c1 [Compound 100, 2-(3-(6-(4-(piperidin-4-yl)phenyl)pyrazolo[1,5-a]pyrimidin-3-yl)phenyl)propan-2-ol]
203 | 3.28 | 67 | 28 | 2.1 | 6 | > 10 | > 10 | – | CC(C)(CN1CCCCC1)Oc1ccc(-c2cnc3c(-c4cccc(S(C)(=O)=O)c4)cnn3c2)cc1 [Compound 101, 6-(4-((2-methyl-1-(piperidin-1-yl)propan-2-yl)oxy)phenyl)-3-(3-(methylsulfonyl)phenyl)pyrazolo[1,5-a]pyrimidine]
